Measured values as given in BindingDB's records for patent US11566007 (Revolution Medicines, 2023).
pIC50: −log10 of the molar value.

Legend:
Experiment in all cases: Biochemical Assay
[1] = molecular target: GTPase KRas [G12C] (Homo sapiens, UniProt P01116, G12C)
Source text: (§1) The purpose of this biochemical assay is to measure the ability of test compounds to covalently label nucleotide-loaded K-Ras isoforms. […] Analysis of raw data may be carried out using Waters MassLynx MS software, with % bound calculated from the deconvoluted protein peaks for labeled and unlabeled K-Ras.

[2] = molecular target: GTPase KRas [Q61H] (Homo sapiens, UniProt P01116, Q61H)
Chain of GTPase KRas [Q61H] (P01116 whole entry Q61H): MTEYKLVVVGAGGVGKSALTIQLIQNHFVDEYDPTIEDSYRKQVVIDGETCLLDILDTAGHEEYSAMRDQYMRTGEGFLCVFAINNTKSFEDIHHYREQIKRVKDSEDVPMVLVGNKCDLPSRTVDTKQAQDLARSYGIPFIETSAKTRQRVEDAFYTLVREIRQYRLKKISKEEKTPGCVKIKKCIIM
Source text: as §1

[3] = molecular target: GTPase NRas [G12C] (Homo sapiens, UniProt P01111, G12C)
Chain of GTPase NRas [G12C] (P01111 whole entry G12C): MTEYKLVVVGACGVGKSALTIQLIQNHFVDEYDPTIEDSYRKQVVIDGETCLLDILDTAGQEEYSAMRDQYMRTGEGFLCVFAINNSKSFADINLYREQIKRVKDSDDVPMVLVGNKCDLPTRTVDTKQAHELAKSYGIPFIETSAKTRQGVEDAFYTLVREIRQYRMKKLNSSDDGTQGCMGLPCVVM

[4] = molecular target: GTPase NRas (Homo sapiens, UniProt P01111)
Chain of GTPase NRas (P01111 whole entry): as the sequence (P01111 whole entry G12C) above, with C12G counted along it

[5] = molecular target: GTPase NRas [Q61R] (Homo sapiens, UniProt P01111, Q61R)
Chain of GTPase NRas [Q61R] (P01111 whole entry Q61R): as the sequence (P01111 whole entry G12C) above, with C12G, Q61R counted along it

[6] = molecular target: GTPase KRas (Homo sapiens, UniProt P01116)
Chain of GTPase KRas (P01116 whole entry): as the sequence (P01116 whole entry Q61H) above, with H61Q counted along it
Source text: as §1

[7] = molecular target: GTPase NRas [Q61K] (Homo sapiens, UniProt P01111, Q61K)
Chain of GTPase NRas [Q61K] (P01111 whole entry Q61K): as the sequence (P01111 whole entry G12C) above, with C12G, Q61K counted along it

Chain of GTPase KRas [G12C] (P01116 whole entry G12C, canonical isoform): as the sequence (P01116 whole entry Q61H) above, with G12C, H61Q counted along it

IC50 [1] | IC50 [4] | pIC50 [4] | Compound | also measured
in the range around 0.055 µM |  |  | C=CC(=O)N1CC[C@H](C(=O)N(C)[C@H](C(=O)N[C@H]2Cc3cc(O)cc(c3)-c3ccc4c(c3)c(c(-c3cccnc3COC)n4CC)CC(C)(C)COC(=O)[C@@H]3CCCN(N3)C2=O)C(C)C)C1 [US11566007, Example A16] | IC50 [2]: in the range around 0.55 µM; IC50 [3]: in the range around 0.055 µM
in the range around 0.55 µM |  | < 5.00 | C=CC(=O)N1CC[C@H](C(=O)N(C)[C@H](C(=O)N[C@H]2Cc3cc(O)cc(c3)-c3ccc4c(c3)c(c(-c3ccccc3)n4CC)CC(C)(C)COC(=O)[C@@H]3CCCN(N3)C2=O)C(C)C)C1 [US11566007, Example A23] | 
 | in the range around 5.5 µM |  | C=CC(=O)N1CC[C@H](C(=O)N(C)[C@H](C(=O)N[C@H]2Cc3cc(O)cc(c3)-c3ccc4c(c3)c(c(-c3cccnc3)n4CC)CC(C)(C)COC(=O)[C@@H]3CCCN(N3)C2=O)C(C)C)C1 [US11566007, Example A45] | pIC50 [5]: < 5.00
in the range around 0.55 µM |  |  | C=CC(=O)N1CC[C@H](C(=O)N(C)[C@H](C(=O)N[C@H]2Cc3cc(O)cc(c3)-c3ccc4c(c3)c(c(-c3cncnc3)n4CC)CC(C)(C)COC(=O)[C@@H]3CCCN(N3)C2=O)C(C)C)C1 [US11566007, Example A61] | IC50 [7]: in the range around 5.5 µM; pIC50 [5]: < 5.00
in the range around 0.055 µM | in the range around 5.5 µM |  | C=CC(=O)N1CC[C@H](C(=O)N(C)[C@H](C(=O)N[C@H]2Cc3cc(O)cc(c3)-c3ccc4c(c3)c(c(-c3cncc(COC)c3)n4CC)CC(C)(C)COC(=O)[C@@H]3CCCN(N3)C2=O)C(C)C)C1 [US11566007, Example A83] | IC50 [6]: in the range around 5.5 µM

Second part, the compound before the results:

Compound | IC50 [1] | IC50 [4] | pIC50 [4] | also measured
C=CC(=O)N1CC[C@H](C(=O)N(C)[C@H](C(=O)N[C@H]2Cc3cc(O)cc(c3)-c3ccc4c(c3)c(c(-c3ccccc3[C@H](C)OC)n4CC)CC(C)(C)COC(=O)[C@@H]3CCCN(N3)C2=O)C(C)C)C1 [US11566007, Example A22] |  | in the range around 0.55 µM |  | IC50 [2]: in the range around 0.055 µM
C=CC(=O)N1CC[C@H](C(=O)N(C)[C@H](C(=O)N[C@H]2Cc3cc(O)cc(c3)-c3ccc4c(c3)c(c(-c3c(F)cccc3CCOC)n4CC)CC(C)(C)COC(=O)[C@@H]3CCCN(N3)C2=O)C(C)C)C1 [US11566007, Example A25] | in the range around 0.55 µM | in the range around 5.5 µM |  | pIC50 [5]: < 5.00
C=CC(=O)N1CC[C@H](C(=O)N(C)[C@H](C(=O)N[C@H]2Cc3cc(O)cc(c3)-c3ccc4c(c3)c(c(-c3ccccc3COC)n4CC)CC(C)(C)COC(=O)[C@@H]3CCCN(N3)C2=O)C2CCCC2)C1 [US11566007, Example A27] | in the range around 0.055 µM |  |  | IC50 [6]: in the range around 5.5 µM
C=CC(=O)N1CC[C@H](C(=O)N(C)[C@H](C(=O)N[C@H]2Cc3cc(O)cc(c3)-c3cc(F)c4c(c3)c(c(-c3ccccc3CCOC)n4CC)CC(C)(C)COC(=O)[C@@H]3CCCN(N3)C2=O)C(C)C)C1 [US11566007, Example A53] | in the range around 0.55 µM |  |  | pIC50 [7]: < 5.00
C=CC(=O)N1CC[C@H](C(=O)N(C)[C@H](C(=O)N[C@H]2Cc3cc(O)cc(c3)-c3ccc4c(c3)c(c(-c3cnccc3C)n4CC)CC(C)(C)COC(=O)[C@@H]3CCCN(N3)C2=O)C(C)C)C1 [US11566007, Example A77] |  |  |  | IC50 [6]: in the range around 0.55 µM
C=CC(=O)N1CC[C@H](C(=O)N(C)[C@H](C(=O)N[C@H]2Cc3cc(O)cc(c3)-c3ccc4c(c3)c(c(-c3ncccc3COC)n4CC)CC(C)(C)COC(=O)[C@@H]3CCCN(N3)C2=O)C(C)C)C1 [US11566007, Example A84] |  |  |  | pIC50 [7]: < 5.00
C=CC(=O)N1CC[C@H](C(=O)N(C)[C@H](C(=O)N[C@H]2Cc3cc(O)cc(c3)-c3ccc4c(c3)c(c(-c3nccnc3COC)n4CC)CC(C)(C)COC(=O)[C@@H]3CCCN(N3)C2=O)C(C)C)C1 [US11566007, Example A85] |  |  | < 5.00 | 
